Source: US20230095520A1, “PHARMACEUTICAL COMPOSITION FOR PREVENTING OR TREATING CANCER COMPRISING AZOLE DERIVATIVES OR PHARMACEUTICALLY ACCEPTABLE SALT THEREOF” (Yungjin Pharm. Co., Ltd., priority 2020, published 2023)

These compounds were tested against T1, Recombinant purified human CDK7 (Homo sapiens, UniProt P50613) (assay: CDK7 activity inhibition, ADP-Glo kinase assay). Settings: ATP 90 μM, MBP substrate, 2 hours 30° C.
T1 construct: purchased ThermoFisher PV3868
Type: biochemical
Experimental: Recombinant purified human CDK7 (ThermoFisher, PV3868) and ADP Glo Kinase Assay Kit (Promega, V9102) were used. CDK7 was diluted with 1× kinase reaction buffer (40 mM Tris-Cl, pH 7.5, 20 mM MgCl2, 0.1 mg/ml BSA and 50 μM DTT) and added to a 96 well plate (CDK7 final concentration per reaction: 50 ng). It was finally treated with the compound of the present invention to a 1% DMSO aqueous solution, and a substrate cocktail containing ATP (final concentration of 90 μM) and 0.2 μg/μl MBP (myelin basic protein) in a total of 25 μl reaction mass was added to a 96 well plate, thereby initiating the enzymatic reaction. After 2 hours of incubation (30° C.), an equal volume (25 μl per reaction) of ADP Glo was added and incubated at room temperature for 60 minutes (30° C.). Thereafter, kinase detection reagent (50 μl per reaction) was added and incubated at room temperature for 30 minutes (30° C.). The kinase activity was measured by the chemiluminescence method according to the ADP Glo Kinase Assay Kit instruction manual, and the CDK7 inhibitory activity of the compounds of the present invention was calculated.

T1 sequence (P50613 whole entry): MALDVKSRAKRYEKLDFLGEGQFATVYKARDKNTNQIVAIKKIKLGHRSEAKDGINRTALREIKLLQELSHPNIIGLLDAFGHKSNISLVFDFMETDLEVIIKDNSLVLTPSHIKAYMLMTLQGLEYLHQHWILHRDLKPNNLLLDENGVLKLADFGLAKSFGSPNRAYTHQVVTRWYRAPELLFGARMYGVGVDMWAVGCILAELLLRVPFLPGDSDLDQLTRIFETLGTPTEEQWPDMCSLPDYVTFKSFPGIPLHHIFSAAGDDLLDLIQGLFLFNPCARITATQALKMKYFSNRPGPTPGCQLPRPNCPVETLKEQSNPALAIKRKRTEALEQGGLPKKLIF
T1 sequence (P51946 whole entry partner): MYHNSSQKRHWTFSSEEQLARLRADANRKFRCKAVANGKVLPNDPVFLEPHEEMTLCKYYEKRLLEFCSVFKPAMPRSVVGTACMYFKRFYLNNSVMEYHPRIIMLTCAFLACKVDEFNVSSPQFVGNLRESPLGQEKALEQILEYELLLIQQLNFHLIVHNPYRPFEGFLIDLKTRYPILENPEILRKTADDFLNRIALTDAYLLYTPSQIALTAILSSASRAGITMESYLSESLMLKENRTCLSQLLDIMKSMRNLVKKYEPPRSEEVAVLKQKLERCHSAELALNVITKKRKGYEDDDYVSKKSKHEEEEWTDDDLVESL
T1 sequence (P51948 whole entry partner): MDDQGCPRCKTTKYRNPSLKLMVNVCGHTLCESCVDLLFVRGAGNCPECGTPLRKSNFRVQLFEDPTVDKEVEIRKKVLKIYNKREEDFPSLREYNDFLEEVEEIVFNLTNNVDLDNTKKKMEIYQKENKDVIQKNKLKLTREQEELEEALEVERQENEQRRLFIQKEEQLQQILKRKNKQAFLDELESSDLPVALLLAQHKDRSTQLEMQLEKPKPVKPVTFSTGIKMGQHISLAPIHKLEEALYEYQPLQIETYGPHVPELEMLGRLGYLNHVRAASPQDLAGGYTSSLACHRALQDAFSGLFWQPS

Row | IC50 [nM] | SMILES
1 | 80.4 | C[C@H](C(=O)Nc1ncc(C(F)(F)F)s1)c1cccc(-c2cnc(NC(=O)/C=C/CN3CCN(C)CC3)cn2)c1 [Compound 95, (S,E)-4-(4-methylpiperazin-1-yl)-N-(5-(3-(1-oxo-1-((5-(trifluoromethyl)thiazol-2-yl)amino)propan-2-yl)phenyl)pyrazin-2-yl)but-2-enamide]
2 | 87 | C[C@H](C(=O)Nc1ncc(Cl)s1)c1cccc(-c2cnc(NC(=O)/C=C/CN3CCOCC3)cn2)c1 [Compound 98, (S,E)-N-(5-(3-(1-((5-chlorothiazol-2-yl)amino)-1-oxopropan-2-yl)phenyl)pyrazin-2-yl)-4-morpholinobut-2-enamide]
3 | 9.8 | COc1cc(-c2cccc([C@H](C)C(=O)Nc3ncc(C(F)(F)F)s3)c2)cnc1NC(=O)/C=C/CN(C)C [Compound 100, (S,E)-4-(dimethylamino)-N-(3-methoxy-5-(3-(1-oxo-1-((5-(trifluoromethyl)thiazol-2-yl)amino)propan-2-yl)phenyl)pyridin-2-yl)but-2-enamide]
4 | 13 | C[C@H](C(=O)Nc1ncc(C(F)(F)F)s1)c1cccc(-c2cnc(NC(=O)/C=C/CN3CCCC3)cn2)c1 [Compound 102, (S,E)-N-(5-(3-(1-oxo-1-((5-(trifluoromethyl)thiazol-2-yl)amino)propan-2-yl)phenyl)pyrazin-2-yl)-4-(pyrrolidin-1-yl)but-2-enamide]
5 | 13 | C[C@H](C(=O)Nc1ncc(C(F)(F)F)s1)c1cccc(-c2cnc(NC(=O)/C=C/CN3CCC3)cn2)c1 [Compound 103, (S,E)-4-(azetidin-1-yl)-N-(5-(3-(1-oxo-1-((5-(trifluoromethyl)thiazol-2-yl)amino)propan-2-yl)phenyl)pyrazin-2-yl)but-2-enamide]
6 | 71 | C[C@H](C(=O)Nc1ncc(N(C)C)s1)c1cccc(-c2cnc(NC(=O)/C=C/CN(C)C)cn2)c1 [Compound 106, (S,E)-4-(dimethylamino)-N-(5-(3-(1-((5-(dimethylamino)thiazol-2-yl)amino)oxopropan-2-yl)phenyl)pyrazin-2-yl)but-2-enamide]
7 | 31 | CC(C(=O)Nc1ncc(C(F)(F)F)s1)c1cncc(-c2ccc(NC(=O)/C=C/CN(C)C)nc2)c1 (centres unmarked) [Compound 107, (E)-4-(dimethylamino)-N-(5′-(1-oxo-1-((5-(trifluoromethyl)thiazol-2-yl)amino)propan-2-yl)-[3,3′-bipyridin]-6-yl)but-2-enamide]
8 | 8.2 | COc1nc(-c2cccc([C@H](C)C(=O)Nc3ncc(C(F)(F)F)s3)c2)cnc1NC(=O)/C=C/CN(C)C [Compound 109, (S,E)-4-(dimethylamino)-N-(3-methoxy-5-(3-(1-oxo-1-((5-(trifluoromethyl)thiazol-2-yl)amino)propan-2-yl)phenyl)pyrazin-2-yl)but-2-enamide]
9 | 5.9 | C[C@H](C(=O)Nc1ncc(C(F)(F)F)s1)c1cccc(-c2cnc3c(c2)CCN3C(=O)/C=C/CN(C)C)c1 [Compound 110, (S,E)-2-(3-(1-(4-(dimethylamino)but-2-enoyl)-2,3-dihydro-1H-pyrrolo[2,3-b]pyridin-5-yl)phenyl)-N-(5-(trifluoromethyl)thiazol-2-yl)propanamide]
10 | 9.5 | C[C@H](C(=O)Nc1ncc(C(F)(F)F)s1)c1cccc(-c2cnc(NC(=O)/C=C/CN(C)C)c(C(F)(F)F)c2)c1 [Compound 111, (S,E)-4-(dimethylamino)-N-(5-(3-(1-oxo-1-((5-(trifluoromethyl)thiazol-2-yl)amino)propan-2-yl)phenyl)-3-(trifluoromethyl)pyridin-2-yl)but-2-enamide]
11 | 17 | Cc1cc(-c2cccc([C@H](C)C(=O)Nc3ncc(C(F)(F)F)s3)c2)cnc1NC(=O)/C=C/CN(C)C [Compound 112, (S,E)-4-(dimethylamino)-N-(3-methyl-5-(3-(1-oxo-1-((5-(trifluoromethyl)thiazol-2-yl)amino)propan-2-yl)phenyl)pyridin-2-yl)but-2-enamide]
12 | 8.5 | C[C@H](C(=O)Nc1ncc(C(F)(F)F)s1)c1cccc(-c2cnc(NC(=O)/C=C/CN(C)C)c(Cl)c2)c1 [Compound 113, (S,E)-N-(3-chloro-5-(3-(1-oxo-1-((5-(trifluoromethyl)thiazol-2-yl)amino)propan-2-yl)phenyl)pyridin-2-yl)-4-(dimethylamino)but-2-enamide]
13 | 12 | CCN(CC)C/C=C/C(=O)Nc1cnc(-c2cccc([C@H](C)C(=O)Nc3ncc(C(F)(F)F)s3)c2)cn1 [Compound 114, (S,E)-4-(diethylamino)-N-(5-(3-(1-oxo-1-((5-(trifluoromethyl)thiazol-2-yl)amino)propan-2-yl)phenyl)pyrazin-2-yl)but-2-enamide]
14 | 13.5 | C[C@H](C(=O)Nc1ncc(C(F)(F)F)s1)c1cccc(-c2ccc(NC(=O)/C=C/CN(C)C)nc2)c1 [Compound 116, (S,E)-4-(dimethylamino)-N-(5-(3-(1-oxo-1-((5-(trifluoromethyl)thiazol-2-yl)amino)propan-2-yl)phenyl)pyridin-2-yl)but-2-enamide]
15 | 15.4 | C[C@H](C(=O)Nc1ncc(C(F)(F)F)s1)c1cccc(-c2cnc(NC(=O)/C=C/CN3CC[C@H](F)C3)cn2)c1 [Compound 117, (E)-4-((S)-3-fluoropyrrolidin-1-yl)-N-(5-(3-((S)-1-oxo-1-((5-(trifluoromethyl)thiazol-2-yl)amino)propan-2-yl)phenyl)pyrazin-2-yl)but-2-enamide]
16 | 20 | COC[C@@H]1CCCN1C/C=C/C(=O)Nc1cnc(-c2cccc([C@H](C)C(=O)Nc3ncc(C(F)(F)F)s3)c2)cn1 [Compound 118, (E)-4-((S)-2-(methoxymethyl)pyrrolidin-1-yl)-N-(5-(3-((S)-1-oxo-1-((5-(trifluoromethyl)thiazol-2-yl)amino)propan-2-yl)phenyl)pyrazin-2-yl)but-2-enamide]
17 | 16 | C[C@H](C(=O)Nc1ncc(C(F)(F)F)s1)c1cccc(-c2cnc(NC(=O)/C=C/CN3CCCCC3)cn2)c1 [Compound 120, (S,E)-N-(5-(3-(1-oxo-1-((5-(trifluoromethyl)thiazol-2-yl)amino)propan-2-yl)phenyl)pyrazin-2-yl)-4-(piperidin-1-yl)but-2-enamide]
18 | 6 | CCc1cnc(NC(=O)[C@@H](C)c2cccc(-c3cnc4c(c3)CCN4C(=O)/C=C/CN(C)C)c2)s1 [Compound 122, (S,E)-2-(3-(1-(4-(dimethylamino)but-2-enoyl)-2,3-dihydro-1H-pyrrolo[2,3-b]pyridin-5-yl)phenyl)-N-(5-ethylthiazol-2-yl)propanamide]
19 | 5.3 | CCc1cnc(NC(=O)[C@@H](C)c2cccc(-c3cnc(NC(=O)/C=C/CN4CC5CC4CO5)c(C#N)c3)c2)s1 (stereo partly drawn) [Compound 123, (E)-4-(2-oxa-5-azabicyclo[2.2.1]heptan-5-yl)-N-(3-cyano-5-(3-((S)-1-((5-ethylthiazol-2-yl)amino)-1-oxopropan-2-yl)phenyl)pyridin-2-yl)but-2-enamide]
20 | 4.5 | C=CC(=O)Nc1ncc(-c2cccc([C@H](C)C(=O)Nc3ncc(C(F)(F)F)s3)c2)cc1C#N [Compound 124, (S)-N-(3-cyano-5-(3-(1-oxo-1-((5-(trifluoromethyl)thiazol-2-yl)amino)propan-2-yl)phenyl)pyridin-2-yl)acrylamide]
21 | 13.2 | CCc1cnc(NC(=O)[C@@H](C)c2cccc(-c3cnc(NC(=O)/C=C/CN(C)C)c(C)c3)c2)s1 [Compound 125, (S,E)-4-(dimethylamino)-N-(5-(3-(1-((5-ethylthiazol-2-yl)amino)-1-oxopropan-2-yl)phenyl)-3-methylpyridin-2-yl)but-2-enamide]
22 | 50 | CCc1cnc(NC(=O)C2(c3cccc(-c4cnc(NC(=O)/C=C/CN(C)C)c(C#N)c4)c3)CC2)s1 [Compound 128, (E)-1-(3-(5-cyano-6-(4-(dimethylamino)but-2-enamido)pyridin-3-yl)phenyl)-N-(5-ethylthiazol-2-yl)cyclopropane-1-carboxamide]
23 | 59 | CCc1cnc(NC(=O)C(CC)c2cccc(-c3ccc(NC(=O)/C=C/CN(C)C)cn3)c2)s1 (centres unmarked) [Compound 131, (E)-4-(dimethylamino)-N-(6-(3-(1-((5-ethylthiazol-2-yl)amino)-1-oxobutan-2-yl)phenyl)pyridin-3-yl)but-2-enamide]
24 | 6.6 | CCc1cnc(NC(=O)[C@@H](C)c2cccc(-c3cnc(N(C)C(=O)/C=C/CN(C)C)c(C#N)c3)c2)s1 [Compound 132, (S,E)-N-(3-cyano-5-(3-(1-((5-ethylthiazol-2-yl)amino)-1-oxopropan-2-yl)phenyl)pyridin-2-yl)-4-(dimethylamino)-N-methylbut-2-enamide]
25 | 47 | CCc1cnc(NC(=O)C2(c3cccc(-c4cnc5c(c4)CCN5C(=O)/C=C/CN(C)C)c3)CC2)s1 [Compound 133, (E)-1-(3-(1-(4-(dimethylamino)but-2-enoyl)-2,3-dihydro-1H-pyrrolo[2,3-b]pyridin-5-yl)phenyl)-N-(5-ethylthiazol-2-yl)cyclopropane-1-carboxamide]
26 | 13 | CCc1cnc(NC(=O)[C@@H](C)c2cccc(-c3cnc(NC(=O)/C=C/CN4CCOCC4)c(C#N)c3)c2)s1 [Compound 135, (S,E)-N-(3-cyano-5-(3-(1-((5-ethylthiazol-2-yl)amino)-1-oxopropan-2-yl)phenyl)pyridin-2-yl)-4-morpholinobut-2-enamide]
